The source of these data is patent US20200055871A1, “ACTIVATORS OF THE RETINOIC ACID INDUCIBLE GENE "RIG-I" PATHWAY AND METHODS OF USE THEREOF” (Kineta Immuno-Oncology LLC, priority 2018, published 2020).

Assay [1] deals with RIG-I deficient CT26 RIG-I−/− cells. As to the kind of experiment: CXCL10 secretion by RIG-I deficient CT26 RIG-I−/− cells (ELISA). Type of assay: cell-based, murine. The settings on record: compound 5 to 20 μM, 24 h. The protocol: (§1) The CT26 murine colon carcinoma cell line (ATCC) was used to evaluate the induction of CXCL10 secretion. CXCL10 is an important chemokine in tumor immune biology that recruits tumor-specific T cells to the tumor. To confirm that compound-mediated CXCL10 production was RIG-I specific, RIG-1 deficient CT2-RIG-I−/−cells were generated by Kineta Inc. using CRISPR technology.
(§2) CT26 cells were seeded at a density of 1×10^4 cells per well on a 96-well tissue culture plate in 100 μL of cell culture and cells were incubated at 37° C. and 5% CO2 for 24 hr. Next, CT26 cells were treated with compounds at the indicated concentrations. CXCL10 was quantified by ELISA from supernatants taken 24 h after compound stimulation by use of the CXCL10 Duo Set ELISA kit (Cat #DY466, R&D, Minneapolis, Minn., USA) according to the manufacturer's instructions.
(§3) CXCL10 secretion by CT26 cells in response to compounds (in an amount of 5 to 20 μM) of the present disclosure is shown in Table 8. The compound-induced CXCL10 production was RIG-I dependent, since none of the compounds mediated CXCL10 secretion in RIG-I deficient CT26 RIG-I−/−cells (about 0 pg/mL of CXCL10, or below the level of quantitation). The compounds (10 μM, *20 μM, **5 μM) are indicated in the table as follows: “≠” indicates less than 100 pg/mL; “+” indicates 100-199 pg/mL; “++” indicates 200-399 pg/mL; “+++” indicates 400-799 pg/mL; “++++” indicates 800 to 1599 pg/mL; “+++++” indicates greater than or equal to 1600 pg/ml.

Assay [2] has as its system murine CT26 colon carcinoma cells. Kind of assay: RIG-I dependent CXCL10 secretion by CT26 cells (ELISA). The note with it: supernatant 24 h after stimulation. Type of assay: cell-based. The protocol:
as §1, §2, §3
In general terms: ELISA stands for enzyme-linked immunosorbent assay.

The test system of assay [3] is IRF3 signaling pathway in THP1-Lucia™ ISG cells. Kind of assay: THP1-Lucia ISG reporter assay: induction of IRF3-dependent gene expression (secreted luciferase). Type of assay: cell-based, human. The note with it: Homo sapiens, THP1-Lucia ISG; 10 μM compound, PMA-differentiated cells, 18 h after stimulation; read-out: fold increase of IRF3-dependent luciferase activity over background, THP1 ISG. The protocol:
The compounds were evaluated in the THP1-Lucia™ ISG (interferon stimulated genes) reporter assay to determine if the compounds activate the IRF3 signaling pathway. The THP1-Lucia™ cells (InvivoGen) express the secreted luciferase (Lucia) reporter gene under the control of an IRF-inducible promoter. The reporter cell line was developed from human monocytic leukemia THP-1 cells.
The promoter was comprised of five IFN-stimulated response elements (ISRE) fused to an ISG54 minimal promoter which is unresponsive to NF-kB or AP-1 pathways. […] The IRF3-deficient THP1-Lucia™ ISG IRF3−/−reporter cell line was generated by CRISPR technology from the parent THP1-Lucia™ ISG reporter cell line.
THP1-Lucia™ ISG cells and IRF3-deficient THP1-Lucia™ ISG IRF3−/−cells were differentiated with PMA (100 ng/ml) and stimulated with compounds at the indicated concentrations (5 to 20 μM), positive control, or not treated (background). Luciferase secretion was quantified using the QUANTI-Luc luciferase assay system (InvivoGen) 18 h after stimulation. Data are shown as fold increase luciferase activity over background in Table 7 and represent the IRF3-dependent ISG54 promoter activity by the THP1-Lucia™ ISG cells in response to compounds. […] The fold increase of compounds (10 μM, *20 μM, **5 μM) induced IRF3 dependent luciferase activity is indicated as follows: “≠” indicates less than 2.4 fold increase; “+” indicates a 2.4-4.9 fold increase; “++” indicates a 5-9.9 fold increase; “+++” indicates a 10-19 fold increase; “++++” indicates a 20-39 fold increase; “+++++” indicates greater than or equal to 40 fold increase.
For orientation: Reporter assays use an easily measured gene product as a stand-in for the process of interest.

For `O=C(Nc1nc2ccc3scnc3c2s1)c1cc2ccccc2cc1OCCCCN1CCOCC1` [Example 28, N-{3,10-dithia-5,12-diazatricyclo[7.3.0.0^2,^6]dodeca-1,4,6,8,11-pentaen-4-yl}-3-[4-(morpholin-4-yl)butoxy]naphthalene-2-carboxamide], the “CXCL10 secretion, CT26 RIG-I−/−” value in assay [1] was “−”. Moreover, in assay [2] (10 μM compound), the “CXCL10 secretion, CT26” value was “++ (200-399 pg/mL)”. In assay [3], the fold induction at 10 µM fell in the range of 2.4 to 4.9.
On the same counts, the results for `O=C(Nc1nc2ccc3scnc3c2s1)c1cc2ccccc2s1` [Example 11, N-{3,10-dithia-5,12-diazatricyclo[7.3.0.0^2,^6]dodeca-1,4,6,8,11-pentaen-4-yl}-1-benzothiophene-2-carboxamide] are “−”, “++ (200-399 pg/mL)” and 2.4 to 4.9.
With `CSc1nc2c(ccc3nc(NC(=O)c4cc5ccccc5cc4OCCCN4CCOCC4)sc32)s1` [Example 36, N-[11-(methylsulfanyl)-3,10-dithia-5,12-diazatricyclo[7.3.0.0^2,^6]dodeca-1,4,6,8,11-pentaen-4-yl]-3-[3-(morpholin-4-yl)propoxy]naphthalene-2-carboxamide], the “CXCL10 secretion, CT26 RIG-I−/−” value in assay [1] was “−”. The “CXCL10 secretion, CT26” value in assay [2] (10 μM compound) is on record as “+++ (400-799 pg/mL)”. Further, in assay [3], the fold induction at 10 µM lay within 5 to 9.9.
The like results for `O=C(Nc1nc2ccc3scnc3c2s1)c1cc2ccccc2cc1OCCCN1CCOCC1` [Example 1, N-{3,10-dithia-5,12-diazatricyclo[7.3.0.0^2,6]dodeca-1,4,6,8,11-pentaen-4-yl}-3-[3-(morpholin-4-yl)propoxy]naphthalene-2-carboxamide] were, in that order, “−”, “++++ (800 to 1599 pg/mL)” and 2.4 to 4.9.
On the same counts, the results for `O=C(Nc1nc2ccc3scnc3c2s1)c1cc2ccsc2cc1OCCCCN1CCOCC1` [Example 43, N-{3,10-dithia-5,12-diazatricyclo[7.3.0.0^2,^6]dodeca-1,4,6,8,11-pentaen-4-yl}-6-[4-(morpholin-4-yl)butoxy]-1-benzothiophene-5-carboxamide] are “−”, “+++ (400-799 pg/mL)” and 10 to 19.
On the same counts, the results for `O=C(Nc1nc2ccc3scnc3c2s1)c1cc2c(cc1OCCN1CCOCC1)OCO2` [Example 40, N-{3,10-dithia-5,12-diazatricyclo[7.3.0.0^2,^6]dodeca-1,4,6,8,11-pentaen-4-yl}-6-[2-(morpholin-4-yl)ethoxy]-2H-1,3-benzodioxole-5-carboxamide] are “−”, “≠ (less than 100 pg/mL)” and 20 to 39.
For `O=C(Nc1nc2ccc3scnc3c2s1)c1ccc2sccc2c1` [Example 14, N-{3,10-dithia-5,12-diazatricyclo[7.3.0.0^2,^6]dodeca-1,4,6,8,11-pentaen-4-yl}-1-benzothiophene-5-carboxamide], the “CXCL10 secretion, CT26 RIG-I−/−” value in assay [1] is listed as “−”. The “CXCL10 secretion, CT26” value in assay [2] (20 μM compound (*)) is listed as “++* (200-399 pg/mL)”. In assay [3], the fold induction at 10 µM was 10 to 19.
Consider `COc1nc2c(ccc3nc(NC(=O)c4cc5ccccc5cc4OCCCN4CCOCC4)sc32)s1` [Example 31, N-{11-methoxy-3,10-dithia-5,12-diazatricyclo[7.3.0.0^2,^6]dodeca-1,4,6,8,11-pentaen-4-yl}-3-[3-(morpholin-4-yl)propoxy]naphthalene-2-carboxamide], for which the “CXCL10 secretion, CT26 RIG-I−/−” value in assay [1] is given as “−”. In addition, the “CXCL10 secretion, CT26” value in assay [2] (10 μM compound) was “++ (200-399 pg/mL)”. Further, in assay [3], the fold induction at 10 µM lay in the range of 5 to 9.9.
On the same counts, the results for `O=C(Nc1nc2ccc3scnc3c2s1)c1cc2c(cc1OCCCCN1CCOCC1)OCO2` [Example 41, N-{3,10-dithia-5,12-diazatricyclo[7.3.0.0^2,^6]dodeca-1,4,6,8,11-pentaen-4-yl}-6-[4-(morpholin-4-yl)butoxy]-2H-1,3-benzodioxole-5-carboxamide] are “−”, “+ (100-199 pg/mL)” and 2.4 to 4.9.
